Test system: human PBMC cells
Assay: human PBMC assay: IFN-γ and IFN-α in cell-free medium by ELISA
Assay type: cell-based
Settings: for IFN-α (pg/ml) 17240 / IFN-γ (pg/ml) 17240: donor 17240; for IFN-α (pg/ml) 17240 / IFN-γ (pg/ml) 17240 / IFN-α (pg/ml) 17241 / IFN-γ (pg/ml) 17241 / IFN-α (pg/ml) 17242 / IFN-γ (pg/ml) 17242 / IFN-α (pg/ml) 17243 / IFN-γ (pg/ml) 17243 / IFN-α (pg/ml) mean: test samples 20 μg/ml, '+ PLGA' = premixed with 100 μg/ml cPLGA; for IFN-α (pg/ml) 17240 / IFN-γ (pg/ml) 17240 / IFN-α (pg/ml) 17241 / IFN-γ (pg/ml) 17241 / IFN-α (pg/ml) 17242 / IFN-γ (pg/ml) 17242 / IFN-α (pg/ml) 17243 / IFN-γ (pg/ml) 17243 / IFN-α (pg/ml) mean / IFN-α +PLGA / IFN-γ +PLGA / IFN-α −PLGA / IFN-γ −PLGA: 24 hours; for IFN-α (pg/ml) 17240 / IFN-γ (pg/ml) 17240 / IFN-α (pg/ml) 17241 / IFN-γ (pg/ml) 17241 / IFN-α (pg/ml) 17242 / IFN-γ (pg/ml) 17242 / IFN-α (pg/ml) 17243 / IFN-γ (pg/ml) 17243: SAC 1/5000 dilution; for IFN-α (pg/ml) 17241 / IFN-γ (pg/ml) 17241: donor 17241; for IFN-α (pg/ml) 17242 / IFN-γ (pg/ml) 17242: donor 17242; for IFN-α (pg/ml) 17243 / IFN-γ (pg/ml) 17243: donor 17243; for IFN-α (pg/ml) mean: mean of 4 donors; for IFN-α +PLGA / IFN-γ +PLGA / IFN-α −PLGA / IFN-γ −PLGA: mean results (Table 4; unit in Table 3); for IFN-α +PLGA / IFN-γ +PLGA: 20 μg/ml formulated with 100 μg/ml cPLGA; for IFN-α −PLGA / IFN-γ −PLGA: compound alone, 20 μg/ml
Procedure: Peripheral blood was collected from volunteers by venipuncture using heparinized syringes. Blood was layered onto a FICOLL® (Amersham Pharmacia Biotech) cushion and centrifuged. PBMCs, located at the FICOLL® interface, were collected, then washed twice with cold phosphate buffered saline (PBS). The cells were resuspended and cultured in 48 well plates or 96-well plates at 2×10^6 cells/mL at 37° C. in RPMI 1640 with 10% heat-inactivated human AB serum plus 50 units/mL penicillin, 50 μg/mL streptomycin, 300 μg/mL glutamine, 1 mM sodium pyruvate, and 1×MEM non-essential amino acids (NEAA).
The cells were cultured in the absence of test samples, in the presence of test samples at 20 μg/ml (0.5 OD/ml), or in the presence of test samples at 20 μg/ml premixed with 100 μg/ml cationic poly(lactic acid, glycolic acid) microcarriers (cPLGA; see infra) (when used) for 24 hours. Cell-free medium was then collected from each well and assayed for IFN-γ and IFN-α concentrations. SAC (Pansorbin CalBiochem, 1/5000 dilution) was used as a positive control. SAC is Staph. aureus (cowan) cell material.
IFN-γ and IFN-α were assayed using CYTOSCREEN™ ELISA kits from BioSource International, Inc., according to the manufacturer's instructions.
Compound B07 (see Example 1, above) was tested for immunomodulatory activity in human PBMC cells as outlined in Example 9, above. For comparison purposes, the immunomodulatory activities of a variety of polynucleotides and chimeric molecules containing spacer moieties were also assayed. The syntheses and features of immunomodulatory chimeric molecules like compounds C-101, C-124, and C-125 are described in U.S. patent application Ser. No. 10/176,883 entitled, “Chimeric Immunomodulatory Compounds and Methods of Using the Same,” filed on Jun. 21, 2002, herein incorporated by reference. All nucleotide linkages and linkages between NAMs, spacer moieties and branch-point nucleosides in the listed compounds are phosphorothioate esters. HEG=hexaethylene glycol; symmetrical doubler=1,3-diamino-2-propanol; trebler=modified pentaerythritol; T-C6=2′-deoxyuridine; AHA=aminohexyl-3(E)-acrylamido linked at the C-5 position of 2′-deoxyuridine (see FIG. 1A). The compounds were each tested both alone and formulated with cPLGA (see Example 9, supra).

Substance	IFN-α (pg/ml) 17240	IFN-γ (pg/ml) 17240	IFN-α (pg/ml) 17241	IFN-γ (pg/ml) 17241	IFN-α (pg/ml) 17242	IFN-γ (pg/ml) 17242	IFN-α (pg/ml) 17243	IFN-γ (pg/ml) 17243	IFN-α (pg/ml) mean	IFN-α +PLGA	IFN-γ +PLGA	IFN-α −PLGA	IFN-γ −PLGA	immunomodulatory activity compared with linear polynucleotide P-6 (PBMC assays, in words)	induction of IFN-γ and IFN-α compared with chimeric compounds (PBMC assays, in words)
5′-TGACTGTGAACGTTCGAGATGA-3′ [P-6]	86 pg/mL	172 pg/mL	30 pg/mL	158 pg/mL	57 pg/mL	47 pg/mL	30 pg/mL	77 pg/mL	51 pg/mL	295 pg/mL	568 pg/mL	51 pg/mL	113 pg/mL	–	–
(5′-TCGACGT3′-HEG)2-(T-C6 brancher)-HEG-5′-TCGACGT-3′ [B07 (#2)]	1046 pg/mL	207 pg/mL	253 pg/mL	129 pg/mL	1365 pg/mL	48 pg/mL	520 pg/mL	158 pg/mL	796 pg/mL	8998 pg/mL	1016 pg/mL	796 pg/mL	135 pg/mL	–	–
(5′-TAGTCAT-HEG)3-trebler-HEG-5′-TAGTCAT-3′ [M-102]	30 pg/mL	34 pg/mL	30 pg/mL	24 pg/mL	30 pg/mL	10 pg/mL	30 pg/mL	45 pg/mL	30 pg/mL	85 pg/mL	61 pg/mL	30 pg/mL	28 pg/mL	–	–
(5′-TAGTCAT-3′-HEG)2-symmetrical doubler-HEG-5′-TAGTCAT-3′ [M-101]	39 pg/mL	24 pg/mL	30 pg/mL	10 pg/mL	30 pg/mL	10 pg/mL	30 pg/mL	22 pg/mL	32 pg/mL	68 pg/mL	92 pg/mL	32 pg/mL	16 pg/mL	–	–
(5′-TCGACGT-3′-HEG)2-glycerol-HEG-5′-TCGACGT-3′ [C-101]	2189 pg/mL	237 pg/mL	520 pg/mL	147 pg/mL	1071 pg/mL	73 pg/mL	293 pg/mL	142 pg/mL	–	5609 pg/mL	1323 pg/mL	–	150 pg/mL	–	–
(5′-TCGACGT-3′-HEG)3-trebler-HEG-5′-TCGACGT-3′ [C-125]	1519 pg/mL	253 pg/mL	67 pg/mL	136 pg/mL	1284 pg/mL	85 pg/mL	309 pg/mL	184 pg/mL	795 pg/mL	6348 pg/mL	889 pg/mL	795 pg/mL	165 pg/mL	–	–
5′-TGACTGTGAACCTTAGAGATGA-3′ (DNA TGACTGTGAACCTTAGAGATGA; DNA, all phosphorothioate, methylation of C not given here) [P-7]	30 pg/mL	35 pg/mL	30 pg/mL	127 pg/mL	30 pg/mL	10 pg/mL	30 pg/mL	58 pg/mL	30 pg/mL	30 pg/mL	34 pg/mL	30 pg/mL	58 pg/mL	–	–
(5-TCGACGT-3′-HEG)2-(T-C6)-AHA-HEG-5′-TCGACGT-3′ [B07]	1080 pg/mL	205 pg/mL	122 pg/mL	108 pg/mL	1039 pg/mL	30 pg/mL	201 pg/mL	140 pg/mL	610 pg/mL	7298 pg/mL	883 pg/mL	610 pg/mL	121 pg/mL	far superior immunomodulatory activity than the linear polynucleotide P-6	activity similar to the immunomodulatory chimeric compounds C-101, C-124, and C-125
(5′-TAGTCAT-3′-HEG)2-glycerol-HEG-5′-AACCTTC-3′ [M-100]	30 pg/mL	27 pg/mL	30 pg/mL	71 pg/mL	30 pg/mL	10 pg/mL	30 pg/mL	41 pg/mL	30 pg/mL	69 pg/mL	136 pg/mL	30 pg/mL	37 pg/mL	–	–
(5′-TCGACGT-3′-HEG)2-symmetrical doubler-HEG-5′-TCGACGT-3′ [C-124]	1048 pg/mL	303 pg/mL	239 pg/mL	155 pg/mL	1186 pg/mL	65 pg/mL	249 pg/mL	142 pg/mL	680 pg/mL	7017 pg/mL	2661 pg/mL	680 pg/mL	166 pg/mL	–	–
